Measurements from US20210038607A1, “OXADIAZOLYLTHIOPHENE DERIVATIVES USEFUL AS HISTONE DEACETYLASE INHIBITORS” (Karus Therapeutics Limited, priority 2018, published 2021).

How the values were obtained:
Human HDAC9 = biological target: T1, Human HDAC9 (Homo sapiens, UniProt Q9UKV0); assay: HDAC9 biochemical assay, class IIa-specific substrate; details: read-out: HDAC Isoform IC50 (nM) 9
T1 construct: amino acids 604-1066 with C-terminal His tag; His (C); host or cells: baculovirus expression system
T1 sequence (Q9UKV0 604-1066 isoform Q9UKV0-5): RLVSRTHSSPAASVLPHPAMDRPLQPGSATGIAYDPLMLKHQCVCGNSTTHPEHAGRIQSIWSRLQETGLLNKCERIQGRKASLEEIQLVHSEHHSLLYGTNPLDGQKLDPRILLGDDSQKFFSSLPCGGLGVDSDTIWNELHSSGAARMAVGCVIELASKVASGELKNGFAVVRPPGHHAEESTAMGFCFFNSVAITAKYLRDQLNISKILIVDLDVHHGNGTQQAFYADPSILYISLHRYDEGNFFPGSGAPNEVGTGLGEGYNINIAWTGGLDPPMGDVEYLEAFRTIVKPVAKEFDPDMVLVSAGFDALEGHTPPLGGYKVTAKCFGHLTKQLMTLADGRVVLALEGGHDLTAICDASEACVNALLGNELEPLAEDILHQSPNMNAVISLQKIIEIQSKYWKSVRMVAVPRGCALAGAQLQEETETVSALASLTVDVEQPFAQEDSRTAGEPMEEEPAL
Summary of the method: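 HDAC9 residues 604-1066 (C-terminal His tag, baculovirus-expressed) at 0.06 ng/ul with 50 μM class IIa substrate Boc-Lys(trifluoroacetyl)-AMC in Tris-HCl pH 8.0 buffer with BSA and 1% DMSO. 30 min at room temperature, then developer added; fluorescence read at 360/460 nm Ex/Em.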

Human HDAC8 = biological target: T2, Human HDAC8 (Homo sapiens, UniProt Q9BY41); assay: HDAC8 biochemical assay, AMC-labeled peptide substrate; details: read-out: HDAC Isoform IC50 (nM) 8
T2 construct: full length with C-terminal His tag, MW=42.6 kDa; His (C); host or cells: baculovirus expression system
T2 sequence (Q9BY41 1-377): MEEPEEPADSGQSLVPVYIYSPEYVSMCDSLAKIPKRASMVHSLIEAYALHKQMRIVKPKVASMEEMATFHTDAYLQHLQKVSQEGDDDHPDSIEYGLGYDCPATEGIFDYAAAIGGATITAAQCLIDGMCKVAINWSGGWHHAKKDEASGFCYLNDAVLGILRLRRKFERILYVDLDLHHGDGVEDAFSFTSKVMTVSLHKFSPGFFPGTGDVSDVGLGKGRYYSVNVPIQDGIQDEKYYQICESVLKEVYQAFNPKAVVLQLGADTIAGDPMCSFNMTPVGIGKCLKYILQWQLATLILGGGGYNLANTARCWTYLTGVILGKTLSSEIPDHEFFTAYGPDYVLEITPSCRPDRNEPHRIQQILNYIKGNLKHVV
Summary of the method: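 Two-step fluorogenic readout: compounds and enzyme deacetylate 100 µM RHK(Ac)K(Ac)AMC for 2 h at 30° C (pH8.0 Tris buffer, BSA, 1% DMSO final), then developer releases AMC, read at 360/460 Ex/Em. Enzyme: 1 ng/ul full-length His-tagged human HDAC8 from baculovirus.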

Human HDAC10 = biological target: T3, Human HDAC10 (Homo sapiens, UniProt Q969S8); assay: HDAC10 biochemical assay, AMC-labeled peptide substrate; details: read-out: HDAC Isoform IC50 (nM) 10
T3 construct: Human HDAC10 (a.a. 1-481); GST (N); His (C); host or cells: baculovirus expression system
T3 sequence (Q969S8 1-481): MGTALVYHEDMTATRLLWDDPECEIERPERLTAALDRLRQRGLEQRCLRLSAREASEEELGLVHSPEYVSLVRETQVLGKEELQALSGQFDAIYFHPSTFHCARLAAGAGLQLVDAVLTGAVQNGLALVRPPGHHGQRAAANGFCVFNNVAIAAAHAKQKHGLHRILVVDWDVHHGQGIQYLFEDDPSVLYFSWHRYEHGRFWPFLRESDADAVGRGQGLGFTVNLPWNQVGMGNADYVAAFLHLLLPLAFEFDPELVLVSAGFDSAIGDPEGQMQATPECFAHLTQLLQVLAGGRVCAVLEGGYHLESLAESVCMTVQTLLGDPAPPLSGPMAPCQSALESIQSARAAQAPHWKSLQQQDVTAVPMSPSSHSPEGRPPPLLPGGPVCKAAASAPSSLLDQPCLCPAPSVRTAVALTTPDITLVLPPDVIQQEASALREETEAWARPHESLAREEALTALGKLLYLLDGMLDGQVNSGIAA
Summary of the method: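 Two-step fluorogenic read-out (Ex/Em 360/460) after developer digestion of deacetylated RHKK(Ac)AMC (50 μM). Deacetylation ran 2 h at 30 °C with 12 ng/ul HDAC10 (aa 1-481, GST/His tags, baculovirus) in Tris-HCl pH 8.0, BSA, 1% DMSO.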

Row | Compound | IC50 (Human HDAC9) [nM] | IC50 (Human HDAC8) [nM] | IC50 (Human HDAC10) [nM]
1 | O=C(c1nccnc1N(Cc1ccc(-c2noc(C(F)(F)F)n2)s1)c1cnccn1)N1CC(O)(C(F)(F)F)C1 [Example GQ, 1-{3-[(Pyrazin-2-yl)({5-[5-(trifluoromethyl)-1,2,4-oxadiazol-3-yl]thiophen-2-yl}methyl)amino]pyrazine-2-carbonyl}-3-(trifluoromethyl)azetidin-3-ol] | ≤ 10000 | ≤ 10000 | > 10000
2 | Cc1cnnc(N(Cc2ccc(-c3noc(C(F)(F)F)n3)s2)c2cnccn2)c1 [Example GN, 5-Methyl-N-(pyrazin-2-yl)-N-({5-[5-(trifluoromethyl)-1,2,4-oxadiazol-3-yl]thiophen-2-yl}methyl)pyridazin-3-amine] | ≤ 10000 | ≤ 10000 | > 10000
3 | Cc1cnc(N(Cc2ccc(-c3noc(C(F)(F)F)n3)s2)c2cnccn2)cn1 [Example BH, 5-Methyl-N-(pyrazin-2-yl)-N-({5-[5-(trifluoromethyl)-1,2,4-oxadiazol-3-yl]thiophen-2-yl}methyl)pyrazin-2-amine] | ≤ 10000 | ≤ 10000 | > 10000
4 | CC(=O)Nc1cnnc(N(Cc2ccc(-c3noc(C(F)(F)F)n3)s2)c2cnccn2)c1 [Example FM, N-{6-[(Pyrazin-2-yl)({5-[5-(trifluoromethyl)-1,2,4-oxadiazol-3-yl]thiophen-2-yl}methyl)amino]pyridazin-4-yl}acetamide] | ≤ 10000 | ≤ 10000 | > 10000
5 | O=C(c1cnnc(N(Cc2ccc(-c3noc(C(F)(F)F)n3)s2)c2cnccn2)c1)N1CC(C(F)(F)F)C1 [Example GJ, N-(Pyrazin-2-yl)-N-({5-[5-(trifluoromethyl)-1,2,4-oxadiazol-3-yl]thiophen-2-yl}methyl)-5-[3-(trifluoromethyl)azetidine-1-carbonyl]pyridazin-3-amine] | ≤ 10000 | ≤ 10000 | > 10000
6 | FC(F)(F)c1nc(-c2ccc(CN(c3cnccn3)c3cc(N4CCOCC4)cnn3)s2)no1 [Example FP, 5-(Morpholin-4-yl)-N-(pyrazin-2-yl)-N-({5-[5-(trifluoromethyl)-1,2,4-oxadiazol-3-yl]thiophen-2-yl}methyl)pyridazin-3-amine] | ≤ 10000 | ≤ 10000 | > 10000

More lines, now with the values ahead:

Row | IC50 (Human HDAC9) [nM] | IC50 (Human HDAC8) [nM] | IC50 (Human HDAC10) [nM] | Compound
7 | ≤ 10000 | ≤ 10000 | > 10000 | O=C(c1cnnc(N(Cc2ccc(-c3noc(C(F)(F)F)n3)s2)c2cnccn2)c1)N1C[C@@H]2C[C@H]1CO2 [Example FV, 5-[(1S,4S)-2-Oxa-5-azabicyclo[2.2.1]heptane-5-carbonyl]-N-(pyrazin-2-yl)-N-({5-[5-(trifluoromethyl)-1,2,4-oxadiazol-3-yl]thiophen-2-yl}methyl)pyridazin-3-amine]
8 | ≤ 500 | ≤ 10000 | > 10000 | COC1CN(C(=O)c2ccc(N(Cc3ccc(-c4noc(C(F)(F)F)n4)s3)c3cnccn3)nn2)C1 [Example DR, 6-(3-Methoxyazetidine-1-carbonyl)-N-(pyrazin-2-yl)-N-({5-[5-(trifluoromethyl)-1,2,4-oxadiazol-3-yl]thiophen-2-yl}methyl)pyridazin-3-amine]
9 | ≤ 10000 | ≤ 10000 | > 10000 | O=C(c1ccc(N(Cc2ccc(-c3noc(C(F)(F)F)n3)s2)c2cnccn2)nn1)N1C[C@@H]2C[C@H]1CO2 [Example FE, 6-[(1S,4S)-2-Oxa-5-azabicyclo[2.2.1]heptane-5-carbonyl]-N-(pyrazin-2-yl)-N-({5-[5-(trifluoromethyl)-1,2,4-oxadiazol-3-yl]thiophen-2-yl}methyl)pyridazin-3-amine]
